Test [1] addresses Sigma1 (Homo sapiens, UniProt Q99720). Nature of the test: PDSP radioligand binding, Sigma1. The settings on record: for inhibition at 10 µM: quadruplicate, read-out: Sigma1 Primary Screen inhibition of binding. The text has this: (§1) [17] and http://pdsp.med.unc.edu/UNC-CH%20Protocol%20Book.pdf.
For test [2], the target named is NET (norepinephrine transporter) (Homo sapiens, UniProt P23975). Put plainly: PDSP radioligand binding, norepinephrine transporter. To be noted: 10 µM, quadruplicate; read-out: NET Primary Screen inhibition of binding.
Description: as §1

Test [3] has as its target NMDA Receptor (MK-801 binding site). Nature of the test: PDSP radioligand binding, NMDA receptor. The settings on record: Table 2; for Ki: read-out: NMDA (Ki) (converted).
Description: as §1

Test [4] deals with Sigma2 (Homo sapiens, UniProt Q5BJF2). Put plainly: PDSP radioligand binding, Sigma2. To be noted: for Ki: Table 2.
Description: as §1

Test [5] deals with dopamine transporter (DAT). The settings on record: cited from earlier work.
The target of test [6] is SERT (serotonin transporter) (Homo sapiens, UniProt P31645). Nature of the test: biochemical. Format: binding.
Description: as §1

The term inhibition denotes the drop in the measured response relative to a control, in per cent. For orientation: Ki means the equilibrium dissociation constant of an inhibitor or competing ligand from its target.

Chain of NET (norepinephrine transporter) (P23975 whole entry, species assumed): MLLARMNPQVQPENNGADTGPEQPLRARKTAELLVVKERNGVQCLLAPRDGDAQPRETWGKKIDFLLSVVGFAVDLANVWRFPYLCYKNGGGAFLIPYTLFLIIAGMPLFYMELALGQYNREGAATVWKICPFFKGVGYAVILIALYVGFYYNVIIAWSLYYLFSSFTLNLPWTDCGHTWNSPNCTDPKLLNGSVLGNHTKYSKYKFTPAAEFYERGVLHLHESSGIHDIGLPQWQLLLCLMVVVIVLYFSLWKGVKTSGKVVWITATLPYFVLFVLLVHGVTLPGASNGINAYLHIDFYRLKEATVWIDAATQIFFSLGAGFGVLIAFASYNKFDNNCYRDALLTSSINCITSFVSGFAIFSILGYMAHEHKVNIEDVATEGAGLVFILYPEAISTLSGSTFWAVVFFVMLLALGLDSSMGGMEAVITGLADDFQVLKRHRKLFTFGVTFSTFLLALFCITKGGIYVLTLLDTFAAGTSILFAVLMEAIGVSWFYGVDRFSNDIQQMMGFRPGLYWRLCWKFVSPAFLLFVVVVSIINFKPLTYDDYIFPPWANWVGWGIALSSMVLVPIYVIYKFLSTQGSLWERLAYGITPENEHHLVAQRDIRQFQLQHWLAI
Chain of Sigma1 (Q99720 whole entry): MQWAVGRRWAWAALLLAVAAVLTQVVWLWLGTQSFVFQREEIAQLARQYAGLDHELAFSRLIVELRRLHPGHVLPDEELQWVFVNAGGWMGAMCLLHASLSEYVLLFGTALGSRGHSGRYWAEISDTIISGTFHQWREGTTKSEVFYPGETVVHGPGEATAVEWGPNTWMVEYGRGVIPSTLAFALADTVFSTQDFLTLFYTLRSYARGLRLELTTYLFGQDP
Chain of Sigma2 (Q5BJF2 whole entry): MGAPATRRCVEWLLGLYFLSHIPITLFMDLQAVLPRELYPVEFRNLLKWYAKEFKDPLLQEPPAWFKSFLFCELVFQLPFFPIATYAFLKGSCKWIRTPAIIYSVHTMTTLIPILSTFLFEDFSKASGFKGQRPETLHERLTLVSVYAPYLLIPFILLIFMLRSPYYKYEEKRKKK
Chain of SERT (serotonin transporter) (P31645 whole entry, species assumed): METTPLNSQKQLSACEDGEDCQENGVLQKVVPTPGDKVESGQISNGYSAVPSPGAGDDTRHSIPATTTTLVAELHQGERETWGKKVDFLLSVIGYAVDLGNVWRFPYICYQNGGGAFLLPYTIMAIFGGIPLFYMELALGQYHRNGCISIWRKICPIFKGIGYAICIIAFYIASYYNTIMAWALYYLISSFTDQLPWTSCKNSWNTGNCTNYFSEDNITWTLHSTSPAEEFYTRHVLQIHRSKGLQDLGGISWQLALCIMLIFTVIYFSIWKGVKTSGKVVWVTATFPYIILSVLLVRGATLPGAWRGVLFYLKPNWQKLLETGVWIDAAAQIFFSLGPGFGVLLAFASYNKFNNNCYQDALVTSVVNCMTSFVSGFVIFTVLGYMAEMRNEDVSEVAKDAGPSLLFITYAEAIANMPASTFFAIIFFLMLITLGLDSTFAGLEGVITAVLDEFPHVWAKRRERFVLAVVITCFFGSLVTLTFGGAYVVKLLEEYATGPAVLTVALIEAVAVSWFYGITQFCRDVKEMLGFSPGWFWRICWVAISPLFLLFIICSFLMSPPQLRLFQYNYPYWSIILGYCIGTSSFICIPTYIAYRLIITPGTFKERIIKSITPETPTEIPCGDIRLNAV

Consider `c1ccc(C2(N3CCCCC3)CCCCC2)cc1` [Phencyclidine, reference compound], for which the inhibition at 10 µM in test [1] and in test [2] was below 50% throughout. The Ki in test [3] was 59 nM; in test [4] (Sigma2 (Ki, nM)) it was 136 nM; in test [4] (Sigma2 pKi +/− SD), 151 nM. Also, in test [5], the “potency at DAT, in words” value was “submicromolar potency”.

As to `CNC1(c2ccccc2Cl)CCCCC1=O` (racemic) [Ketamine, (RS)-2-(2-chlorophenyl)-2-(methylamino)cyclohexanone, reference compound], the inhibition at 10 µM in test [1] is below 50%; in test [2], below 50%; in test [4] (10 µM, quadruplicate, read-out: Sigma2 Primary Screen inhibition of binding), below 50%. In addition, in test [1] (tested at 10 µM), the “effect on sigma1 receptors” value is given as “no significant effect”. In addition, in test [4] (tested at 10 µM), the “effect on sigma2 receptors” value was “no significant effect”.

In the case of `CCNC1(c2cccc(OC)c2)CCCCC1` [3-MeO-PCE, N-ethyl-1-(3-methoxyphenyl)cyclohexanamine], the Ki in test [1] is 4520 nM; in test [6] (Table 2), 115 nM; in test [3], 61 nM; in test [4] (Sigma2 (Ki, nM)) it was 525 nM; in test [4] (Sigma2 pKi +/− SD), 490 nM. Further, in test [2], the inhibition at 10 µM is below 50%. In addition, the “affinity for the serotonin transporter (SERT), in words” value in test [6] was “submicromolar affinities”. Moreover, the “NMDA pKi +/− SD” value in test [3] is 7.22±0.08.

Values taken from article PMC3602154 (PLoS ONE, 2013).
